Patent US20230310421A1, “MOLECULES FOR USE IN THE TREATMENT OF VIRAL INFECTIONS” (priority 2020, published 2023)

What was measured:
[1] = system: MHV-A59; experiment: Direct (intrinsic) antiviral activity: survival, titer and syncitia formation in L929, BMDMs and LA4 cells; assay type: cell-based, Murine Hepatitis Virus
[2] = system: L929 cells; experiment: Macrophage extrinsic cytotoxic activity (ECT): supernatant of MHV-infected BMDM on L929 cells, CellTiter-Glo / live imaging; settings: L929 cells exposed to supernatant from MOI 0.1-infected BMDM

Row | Compound | effect on DDP rescue of cell viability of infected L929 cells [1] | effect on ECT (viability in uninfected cells) [2] | intrinsic antiviral activity ([1]; drug applied directly on infected L929 cells)
1 | JAK inhibitor I | No effect | no effect | –
2 | N[C@H]1CC[C@H](N[C@@H]2C[C@H]2c2ccccc2)CC1 [Ory1001] | – | – | elicited intrinsic antiviral activity
